Test results reported in patent US20080146612A1, “Novel Biaromatic Compounds, Inhibitors of the P2X7-Receptor” (ASTRAZENECA AB, priority 2005, published 2008).

Biological target: T1, P2X7 receptor (Homo sapiens, UniProt Q99572)
T1 construct: 200 μl of a suspension of THP-1 cells; endogenous in cells; host or cells: THP-1 cells
T1 sequence (Q99572 1-595): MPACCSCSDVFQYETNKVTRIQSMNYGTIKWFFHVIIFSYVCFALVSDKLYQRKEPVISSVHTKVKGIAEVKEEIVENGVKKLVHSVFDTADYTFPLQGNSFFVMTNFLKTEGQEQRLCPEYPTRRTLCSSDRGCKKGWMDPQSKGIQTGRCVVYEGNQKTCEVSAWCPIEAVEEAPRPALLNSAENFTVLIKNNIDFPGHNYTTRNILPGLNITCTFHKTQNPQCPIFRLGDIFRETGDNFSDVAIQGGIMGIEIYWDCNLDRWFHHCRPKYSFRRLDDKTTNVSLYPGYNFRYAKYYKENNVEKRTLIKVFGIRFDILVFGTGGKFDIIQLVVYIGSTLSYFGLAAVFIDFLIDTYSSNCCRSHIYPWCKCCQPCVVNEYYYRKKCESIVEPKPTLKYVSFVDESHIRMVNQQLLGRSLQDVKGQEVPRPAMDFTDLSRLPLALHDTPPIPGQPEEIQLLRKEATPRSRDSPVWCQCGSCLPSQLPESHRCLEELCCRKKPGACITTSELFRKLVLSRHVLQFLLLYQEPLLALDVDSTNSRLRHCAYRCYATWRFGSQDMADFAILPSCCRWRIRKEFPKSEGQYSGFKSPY
Test: P2X7 receptor antagonist test: bbATP-induced ethidium bromide fluorescence in THP-1 cells
Type: cell-based
Conditions: negative logarithm of the concentration of test compound necessary to reduce the bbATP agonist activity by 50%, 10^-5M bbATP solution, 37° C. for one hour
Source text: Certain compounds such as benzoylbenzoyl adenosine triphosphate (bbATP) are known to be agonists of the P2X7 receptor, effecting the formation of pores in the plasma membrane (Drug Development Research (1996), 37(3), p. 126). Consequently, when the receptor is activated using bbATP in the presence of ethidium bromide (a fluorescent DNA probe), an increase in the fluorescence of intracellular DNA-bound ethidium bromide is observed. The increase in fluorescence can be used as a measure of P2X7 receptor activation and therefore to quantif the effect of a compound on the P2X7 receptor.
In this manner, each of the title compounds of the Examples was tested for antagonist activity at the P2X7 receptor. Thus, the test was performed in 96-well flat bottomed microtitre plates, the wells being filled with 250 μl of test solution comprising 200 μl of a suspension of THP-1 cells (2.5×10^6 cells/ml) containing 10^−4M ethidium bromide, 25 μl of a high potassium buffer solution containing 10^−5M bbATP, and 25 μl of the high potassium buffer solution containing concentrations of test compound typically from 30 μM-0.001 μM. The plate was covered with a plastics sheet and incubated at 37° C. for one hour. The plate was then read in a Perkin-Elmer fluorescent plate reader, excitation 520 nm, emission 595 nm, slit widths: Ex 15 nm, Em 20 nm. […]
Compound O=C(NCC1CCCCCC1)c1cc(-c2cccnc2N2CCC(C(=O)O)CC2)ccc1Cl [Example 26, 1-[3-[4-Chloro-3-[[(cycloheptylmethyl)amino]carbonyl]phenyl]-2-pyridinyl]-4-piperidinecarboxylic acid] has an IC50 of 100 nM.
O=C(NCC1(O)CCCCCC1)c1cc(-c2ccccc2C(=O)O)ccc1Cl [Example 2, 4′-Chloro-3′-[[[(1-hydroxycycloheptyl)methyl]amino]carbonyl]-[1,1′-biphenyl]-2-carboxylic acid] gave an IC50 of 63.1 nM.

Tested on: not given
Test: not given
Conditions: not given
CC1(C)[C@H]2CC[C@@H](CNC(=O)c3cc(-c4ccccc4C(=O)O)ccc3Cl)[C@@H]1C2 [Example 5, 4′-Chloro-3′-[[[[(1S,2R,5S)-6,6-dimethylbicyclo[3.1.1]hept-2-yl]methyl]amino]car-bonyl]-[1,1′-biphenyl]-2-carboxylic acid] gave a melting point of 170 to 172 °C.
Cc1ccc(-c2ccc(Cl)c(C(=O)O)n2)cc1C(=O)NCC1CCCCCC1 [Example 18, 3-Chloro-6-[3-[[(cycloheptylmethyl)amino]carbonyl]-4-methylphenyl]-2-pyridinecarboxylic acid] showed a melting point of 177 to 178 °C.
Compound O=C(NCCC1CCCCC1)c1cc(-c2cccnc2N2CCC(C(=O)O)CC2)ccc1Cl [Example 25, 1-[3-[4-Chloro-3-[[(2-cyclohexylethyl)amino]carbonyl]phenyl]-2-pyridinyl]-4-piperidinecarboxylic acid] has a melting point of 116 to 120 °C.
For O=C(NCC1CCCCCC1)c1cc(-c2cccnc2C(=O)O)ccc1Cl [Example 10, 3-[4-Chloro-3-[[(cycloheptylmethyl)amino]carbonyl]phenyl]-2-pyridinecarboxylic acid], the melting point was 166 to 168 °C.
O=C(NCC1(CO)CCCCCC1)c1cc(-c2ccccc2C(=O)O)ccc1Cl [Example 14, 4′-Chloro-3′-[[[[1-(hydroxymethyl)cycloheptyl]methyl]amino]carbonyl]-[1,1′-biphenyl]-2-carboxylic acid] showed a melting point of 175 to 177 °C.
Work on O=C(NCCC1CCCCC1)c1cc(-c2cccnc2C(=O)O)ccc1Cl [Example 11, 3-[4-Chloro-3-[[(2-cyclohexylethyl)amino]carbonyl]phenyl]-2-pyridinecarboxylic acid] yielded a melting point of 104 to 107 °C.
C[C@@H](NC(=O)c1cc(-c2ccccc2C(=O)O)ccc1Cl)C1CCCCC1 [Example 12, 4′-Chloro-3′-[[[(1R)-1-cyclohexylethyl]amino]carbonyl]-[1,1′-biphenyl]-2-carboxylic acid] gave a melting point of 139 to 141 °C.
With O=C(NCCC1CCCCC1)c1cc(-c2ccc(Cl)c(C(=O)O)n2)ccc1Cl [Example 22, 3-Chloro-6-[4-chloro-3-[[(2-cyclohexylethyl)amino]carbonyl]phenyl]-2-pyridinecarboxylic acid] the melting point was 189 to 190 °C.
Work on CC1(CNC(=O)c2cc(-c3ccccc3C(=O)O)ccc2Cl)CCCCCC1 [Example 13, 4′-Chloro-3′-[[[(1-methylcycloheptyl)methyl]amino]carbonyl]-[1,1′-biphenyl]-2-carboxylic acid] yielded a melting point of 180 to 183 °C.
With O=C(NCCc1ccccc1Cl)c1cc(-c2ccccc2C(=O)O)ccc1Cl [Example 1, 4′-Chloro-3′-[[[2-(2-chlorophenyl)ethyl]amino]carbonyl]-[1,1′-biphenyl]-2-carboxylic acid] the melting point was 136 to 140 °C (dec.).
O=C(NCC1CCCCCC1)c1cc(-c2ncc(Cl)cc2C(=O)O)ccc1Cl [Example 20, 5-Chloro-2-[4-chloro-3-[[(cycloheptylmethyl)amino]carbonyl]phenyl]-3-pyridinecarboxylic acid] showed a melting point of 176 to 179 °C.
For C[C@H](CNC(=O)c1cc(-c2ccccc2C(=O)O)ccc1Cl)c1ccccc1 [Example 4, 4′-Chloro-3′-[[[(2S)-2-phenylpropyl]amino]carbonyl]-[1,1′-biphenyl]-2-carboxylic acid], the melting point was 160 to 162 °C.
Work on O=C(NCCC1CCCCC1)c1cc(-c2ncc(Cl)cc2C(=O)O)ccc1Cl [Example 19, 5-Chloro-2-[4-chloro-3-[[(2-cyclohexylethyl)amino]carbonyl]phenyl]-3-pyridinecarboxylic acid] yielded a melting point of 208 to 211 °C.
For O=C(NCCC1CCCCC1)c1cc(-c2ccccc2C(=O)O)ccc1Cl [Example 9, 4′-Chloro-3′-[[(2-cyclohexylethyl)amino]carbonyl]-[1,1′-biphenyl]-2-carboxylic acid], the melting point was 191 to 193 °C.
O=C(NCC1(O)CCCCCC1)c1cc(-c2ncc(Cl)cc2C(=O)O)ccc1Cl [Example 21, 5-Chloro-2-[4-chloro-3-[[[(1-hydroxycycloheptyl)methyl]amino]carbonyl]phenyl]-3-pyridinecarboxylic acid] showed a melting point of 201 to 204 °C.
In the case of O=C(NCC1(O)CCCCC1)c1cc(-c2ccccc2C(=O)O)ccc1Cl [Example 7, 4′-Chloro-3′-[[[(1-hydroxycyclohexyl)methyl]amino]carbonyl]-[1,1′-biphenyl]-2-carboxylic acid], the melting point is reported as 202 to 204 °C.
In the case of O=C(NCC1(O)CCCCCC1)c1cc(-c2ccc(Cl)c(C(=O)O)n2)ccc1Cl [Example 24, 3-Chloro-6-[4-chloro-3-[[[(1-hydroxycycloheptyl)methyl]amino]carbonyl]phenyl]-2-pyridinecarboxylic acid], the melting point is reported as 146 to 149 °C.
O=C(NCC1(O)CCCCCC1)c1cc(-c2cccnc2N2CCC(C(=O)O)CC2)ccc1Cl [Example 27, 1-[3-[4-Chloro-3-[[[(1-hydroxycycloheptyl)methyl]amino]carbonyl]phenyl]-2-pyridinyl]-4-piperidinecarboxylic acid] showed a melting point of 117 to 119 °C.
For O=C(NCC1CCCCC1)c1cc(-c2ccccc2C(=O)O)ccc1Cl [Example 3, 4′-Chloro-3′-[[(cyclohexylmethyl)amino]carbonyl]-[1,1′-biphenyl]-2-carboxylic acid], the melting point was 212 to 214 °C.
With Cc1ccc(-c2ccccc2C(=O)O)cc1C(=O)NCC1CCCCCC1 [Example 16, 3′-[[(Cycloheptylmethyl)amino]carbonyl]-4′-methyl-[1,1′-biphenyl]-2-carboxylic acid] the melting point was 188 to 189 °C.
O=C(NCC1CCCCCC1)c1cc(-c2ccc(Cl)c(C(=O)O)n2)ccc1Cl [Example 23, 3-Chloro-6-[4-chloro-3-[[(cycloheptylmethyl)amino]carbonyl]phenyl]-2-pyridinecarboxylic acid] showed a melting point of 189 to 190 °C.
For O=C(NC[C@@H]1CCCCC[C@@H]1O)c1cc(-c2ccccc2C(=O)O)ccc1Cl (relative stereo) [Example 8, 4′-Chloro-3′-[[[[cis-2-hydroxycycloheptyl]methyl]amino]carbonyl]-[1,1′-biphenyl]-2-carboxylic acid], the melting point was 193 to 195 °C.
O=C(NCC1CCCCCC1)c1cc(-c2ccccc2C(=O)O)ccc1Cl [Example 6, 4′-Chloro-3′-[[(cycloheptylmethyl)amino]carbonyl]-[1,1′-biphenyl]-2-carboxylic acid] gave a melting point of 201 to 203 °C.
